Measurements published in PMC11001709, “Anti-toxoplasma activity and DNA-binding of copper(II) and zinc(II) coordination compounds with 5-nitroimidazole-based ligands” (Journal of Biological Inorganic Chemistry, 2023).
Values joined by “and” are separate entries in the source; they are usually repeats but may differ in a detail not shown here. Identical values can stand only once.

Assays:
pBR322 plasmid DNA = assay: Agarose gel electrophoresis, DNA cleavage; assay type: biochemical
Description: Electrophoresis assays were performed in 1.5% agarose gel and 1× TBE buffer using the DNA plasmid pBR322. The plasmid (15 µM base pairs) was incubated with 10 and 50 μM concentrations of the coordination compounds for 1 h at 37 °C in presence and absence of ascorbic acid (50 μM) as reducing agent and hydrogen peroxide (500 µM) as ROS generator in a final volume of 20 μL. The DNA-cleaving compound [Cu(phen)2(H2O)](NO3)2 was used as reference. The samples were loaded into the gel with 4 μL of a loading buffer (30% glycerol, 5 mM xylene cyanol), and electrophoresis was performed in 1× TBE at 100 V for 1 h in a Bio-Rad horizontal tank. Subsequently, the gel was stained with SYBR™ Safe overnight and images were acquired with a Gel Doc EZ Imager instrument (Bio-Rad).
Distinct forms of pBR322 plasmid DNA are commonly observed by gel electrophoresis due to the conformational changes that present distinct electrophoretic mobility: (1) supercoiled DNA (Form I) that migrates faster on the gel, (2) circular nicked (Form II), obtained from a one-strand scission, has a slower migration through the gel and (3) linear form (Form III) is generated when both strands are cleaved and migrates between forms I and II [54]. The interaction of the free ligands and their copper(II) and zinc(II) coordination compounds with pBR322 was investigated in presence of H2Asc (50 μM) as reducing agent and H2O2 (500 μM) as ROS generator. Solutions of 10 and 50 µM of the coordination compounds were incubated with the DNA at 37 °C for 1 h.

ct-DNA [1] = assay: Circular dichroism of ct-DNA; assay type: binding, calf; details: [DNA]b = 50 µM, [complex]/[DNA] 0-2, 1 h 37 °C
Description: (§1) For the UV–Vis, fluorescence and circular dichroism assays the concentration of ct-DNA was determined on a Varian Cary 100 Scan spectrophotometer from the absorption at 260 nm and the corresponding molar absorptivity of 6600 M^−1 cm^−1 (nucleobase concentration). The stock solutions of the coordination compounds and the free ligands were prepared in cacodylate/NaCl buffer (1 mM cacodylic acid and 20 mM sodium chloride) at pH 7.25. The final samples contained a DMSO concentration of 0.2%.
Circular dichroism (CD) spectra were recorded using a JASCO-815 spectropolarimeter, equipped with xenon-arc lamp of 450 W. The sample compartment was air-purged with N2 before use. For the measurements, a quartz cuvette with an optical path of 5 mm was used. A solution of 25 µM (in base pairs) of ct-DNA in cacodylate/NaCl buffer was incubated for 1 h at 37 °C with increasing amounts of coordination compounds (0–50 µM). The CD spectra were recorded at room temperature.
The interaction of small molecules with DNA can modify these CD signals depending on the type of binding. Intercalative interactions increase the intensity of the signals, as the result of an increase of the stability of the B conformation, whereas groove binding or covalent interactions tend to decrease the intensity of these signals, which are moreover displaced. The CD spectra for both ligands and their copper(II) and zinc(II) complexes were obtained at constant concentration of ct-DNA, increasing the complex concentration up to two equivalents ([complex]/[DNA] ratios of 0, 0.2, 0.4, 1, 2) with respect to the nucleobases concentration ([DNA]b = 50 µM).

ct-DNA [2] = assay: Competitive displacement of Hoechst 33258 from DNA (fluorescence); assay type: binding, calf; details: Hoechst 33258 1.9 µM, [DNA]b = 30 µM, compound 0-50 µM, 1 h
Description: as §1
(§2) Emission intensity of the dyes DNA-intercalator ethidium bromide, EB (λexc = 514 nm) and the minor-groove binder Hoechst 33,258 (λexc = 350 nm) was measured on iHR320 HORIBA JOBIN YVON spectrofluorometer. The samples contained 15 µM (in base pairs) of ct-DNA and 75 µM of EB […] in cacodylate/NaCl buffer. The respective dye was incubated for 30 min with ct-DNA to allow its binding to the biomolecule. Subsequently, increasing amounts of coordination compounds (0–50 µM) were added up to a final volume of 2 mL, and the samples were incubated for 1 h at 37 °C. The fluorescence spectra of all samples were recorded at room temperature. The affinity of the compounds for ct-DNA compared to EB was evaluated through the Stern–Volmer quenching constant Ksv, from Eq. 3:3 I0/I=1+Ksvcompound where I0 and I are the emission intensities in absence and the presence of the compound, respectively.
Competitive binding assays were carried out with Hoechst 33,258. This dye binds to B-DNA, especially those with an AT-rich sequence giving a fluorescent signal at 458 nm when excited at 350 nm. As for to the EB assays, DNA (30 µM) was incubated for 30 min with Hoechst 33,258 (1.9 µM) and increasing amounts of the coordination compounds were subsequently added. In all cases, fluorescence quenching was observed (Fig. 9). As previously, the Ksv constants were determined (Fig. 9c and Table 4). The copper(II) compounds show Ksv values in the […] range (Table 4), indicating a groove binding behavior. For the zinc(II) compounds, the Ksv values are two orders of magnitude lower indicating weaker interactions, must likely of electrostatic nature.

[3] = Distribution coefficient LogD7.4, shake-flask 1-octanol/MOPS buffer; assay type: physicochemical; details: 25 °C; for LogD7.4: octanol/water (MOPS buffer 10^–2 M), 3 h
Description: Solutions between 100 and 10 µM of the free ligands (cenz and onz) and the coordination compounds 3–10 were prepared in a MOPS buffer pH 7.4 as the aqueous phase and in 1-octanol as the organic phase. The absorption at 320 nm and 310 nm was determined for the aqueous and organic phase respectively by electronic spectroscopy (UV–Vis). Through a linear regression (concentration vs. absorption) the molar extinction coefficient of each compound in both phases was determined (Table 3). The lipophilicity was calculated in the 1-octanol/water system from the shake flask method using Eq. 1 [39]:1 […] where, Co is the final concentration in the organic phase and Cw is the final concentration in the aqueous phase (MOPS buffer at 10^–2 M pH 7.4). Both phases were presaturated with 50 µM solutions of the free ligands or 500 µM of each coordination compound and their UV spectrum was recorded. Both phases were combined and kept stirring for 3 h at 25 °C and in the absence of light. Subsequently, the mixture was centrifuged at 400g and the concentration in both phases was determined by UV–Vis spectroscopy using the Beer-Lambert law. The assays were performed in triplicate.
The T gondii parasite is an apicomplex organism; it requires a host cell to live, so it is important that the drugs used against the parasite have easy access to the cell. The lipophilicity of a compound is an important physicochemical property to determine its ability to permeate the biological membrane through passive diffusion; which usually is measured from the distribution coefficient logD7.4 = log(Co/Cw), in n-octanol/water. The shake-flask method was used to determine the LogD7.4 values from the molar extinction coefficients of the coordination compounds and the ligands in the two solvents (Table 3).

ct-DNA [4] = assay: Competitive displacement of ethidium bromide from DNA (fluorescence); assay type: binding, calf; details: EB 75 µM, [DNA]b = 30 µM, compound 0-50 µM, 1 h
Description: as §1, §2
With the aim to corroborate the binding mode of the coordination compounds with DNA competitive displacement assays were carried out by florescence spectroscopy. The fluorescence of ethidium bromide (EB) increases when it intercalates between DNA base pairs, forming an EB-DNA adduct. Competitive binding assays will lead to a decrease of the fluorescence intensity (λexc = 514 nm; λem = 610 nm) if the interacting molecule is capable of displacing EB from the DNA helix. Solutions containing constant concentrations of DNA (30 µM) and EB (75 µM) were incubated for 30 min. Then the coordination compounds to be tested were added in a concentration in the range of 0–50 µM (corresponding to [complex]/[DNA] ratios between = 0 and 3.3), and fluorescence spectra were recorded after 1 h of incubation.

[5] = test system: RH tachyzoites of Toxoplasma gondii; assay: Viability of extracellular tachyzoites, Sytox Green exclusion test; assay type: cell-based; details: 2.5-40 µM, 1 h, PBS
Description: RH tachyzoites of Toxoplasma gondii were extracted in PBS solution at pH 7.4 from intraperitoneal fluid of infected CD1 mice on the third day of infection and centrifuged for ten minutes at 260g. Purified parasites were used within 4 h after their isolation.
The viability of the parasites was determined from staining with Sytox Green® fluorescent dye exclusion test. Purified tachyzoites (1 × 10^6) were incubated for one hour at room temperature with PBS solutions of the coordination compounds or the free ligands at concentrations of 40, 20, 10, 5, and 2.5 µM (0.1% DMSO), in a volume final of 1 mL. After the incubation time, the samples were centrifuged for 10 min at 250g, the medium was removed and 20 µL of Sytox Green® was added after 15 min of incubation for differentiate dead parasites in a Neubauer chamber. The assays were performed in triplicate. The half maximal inhibitory concentration (IC50) was calculated by Boltzmann regression analysis and expressed as mean ± standard error of three replicates. Based on the results the tachyzoites were incubated under the same conditions with the coordination compounds [Cu(onz)2Cl2] and [Cu(onz)2Br2] at their respective IC50 values, Sytox Green® was then added, and they were observed by fluorescence microscopy. Sulfadiazine was used as positive control.
Viability assays were performed against tachyzoites of Toxoplasma gondii. The RH strain was used to evaluate the effect of different concentrations (namely, 2.5, 5, 10, 20 and 40 µM) of the coordination compounds and the free 5-nitroimidazole against the tachyzoites. The evaluation were performed in PBS buffer (pH 7.4) with Sytox Green® exclusion test, which allows differentiating dead from live tachyzoites, since the intact cell membrane of alive ones is not stained.

[6] = compound 10 (mM in the source), + H2Asc
[7] = compound 10 (mM in the source), + H2Asc + H2O2
[8] = compound 10 (mM in the source), + H2O2
[9] = compound 10 (mM in the source), no additive
[10] = compound 50 (mM in the source), + H2Asc
[11] = compound 50 (mM in the source), + H2Asc + H2O2
[12] = compound 50 (mM in the source), + H2O2
[13] = compound 50 (mM in the source), no additive

Structure (SMILES) | %Damage (pBR322 plasmid DNA; [6]) | %Nicked (pBR322 plasmid DNA; [6]) [%] | %Supercoiled (pBR322 plasmid DNA; [6]) [%] | %Damage (pBR322 plasmid DNA; [7]) [%] | %Damage (pBR322 plasmid DNA; [8]) | %Supercoiled (pBR322 plasmid DNA; [8]) | %Supercoiled (pBR322 plasmid DNA; [9]) | effect on CD spectrum of ct-DNA (bands at 275 and 245 nm) (ct-DNA [1]) | Hoechst 33258 Ksv (ct-DNA [2]) [M⁻¹] | LogD7.4 [3] | %Nicked (pBR322 plasmid DNA; [8]) [%] | %Damage (pBR322 plasmid DNA; [9]) [%] | %Damage (pBR322 plasmid DNA; [10]) [%] | %Supercoiled (pBR322 plasmid DNA; [10]) [%] | %Damage (pBR322 plasmid DNA; [11]) [%] | %Damage (pBR322 plasmid DNA; [12]) [%] | %Nicked (pBR322 plasmid DNA; [12]) [%] | %Supercoiled (pBR322 plasmid DNA; [12]) [%] | %Damage (pBR322 plasmid DNA; [13]) [%] | %Supercoiled (pBR322 plasmid DNA; [13]) [%] | also measured
O.O=[N+]([O-])[O-].O=[N+]([O-])[O-].[Cu+2].c1cnc2c(c1)ccc1cccnc12.c1cnc2c(c1)ccc1cccnc12 [Cu(phen), reference compound] | 100.00% and 94.90% | 64.80 | 5.10 | 100.00 | 80.70% and 79.00% | 19.30% and 21.00% | 81.70% and 93.20% | – | – | – | – | – | – | – | – | – | – | – | – | – | –
Cc1ncc([N+](=O)[O-])n1CCCl.Cc1ncc([N+](=O)[O-])n1CCCl.[Cl][Zn][Cl] [[Zn(cenz)2Cl2]] | 17.10% | 2.90 | 82.90 | 90.90 | 7.30% | 92.70% | 79.20% | spectra changes are minor | 61000 | 0.86 | 6.50 | 20.80 | 80.60 | 19.40 | 100.00 | 97.60 | 81.50 | 2.40 | 18.40 | 81.60 | %Nicked (pBR322 plasmid DNA; [7]): 2.10%; %Supercoiled (pBR322 plasmid DNA; [7]): 9.10%; %Nicked (pBR322 plasmid DNA; [9]): 2.50%; %Nicked (pBR322 plasmid DNA; [10]): 40.60%; %Nicked (pBR322 plasmid DNA; [13]): 2.20%
Cc1n(CC(O)CCl)c([N+](=O)[O-])c[n+]1[Zn-2]([Br])([Br])[n+]1cc([N+](=O)[O-])n(CC(O)CCl)c1C (stereo not shown) [[Zn(onz)2Br2]] | 87.3% | 81.80 | 12.70 | 100.00 | 14.30% | 85.70% | 96.50% | spectra changes are minor | 48000 | 0.95 | 4.70 | 3.5 | 98.2 | 1.80 | 100.00 | 44.80 | 29.10 | 55.20 | 11.9 | 88.10 | Ethidium bromide Ksv (ct-DNA [4]): 2600 M⁻¹; %Nicked (pBR322 plasmid DNA; [9]): 2.60%; %Nicked (pBR322 plasmid DNA; [10]): 98.80%; %Nicked (pBR322 plasmid DNA; [13]): 0.40%
Cc1ncc([N+](=O)[O-])n1CCCl [cenz, 1-(2-chloroethyl)-2-methyl-5-nitro-1H-imidazole] | – | – | – | – | – | – | – | did not affect the DNA structure | – | – | – | – | 8.80 | 91.20 | 9.70 | 7.20 | 5.90 | 92.80 | 7.50 | 92.50 | logD at 3 h ([3]; 1-octanol/MOPS buffer, pH 7.4, octanol/water (MOPS buffer 10^–2 M)): 0.72; %Nicked (pBR322 plasmid DNA; [11]): 4.00%; %Supercoiled (pBR322 plasmid DNA; [11]): 90.30%; DNA cleavage (in words) (pBR322 plasmid DNA; with and without H2Asc / H2O2): did not provoke any significant DNA cleavage; activity against T. gondii [5]: did not show activity
